These are literature values, as cited in patent publication US20240285564A1, “USE OF (S)-3-AMINO-4-(DIFLUOROMETHYLENYL)CYCLOPENT-1-ENE-1-CARBOXYLIC ACID FOR GASTROINTESTINAL TRACT DISORDERS AND AS AN IMMUNOMODULATORY AGENT” (Ovid Therapeutics Inc., priority 2023, published 2024).

The subject of series [1] is aspartate aminotransferase (Asp-AT).
Series [2] deals with alanine aminotransferase (Ala-AT).
Series [3] deals with T1, OAT (Homo sapiens, UniProt P04181).
T1 sequence (P04181 36-439 limits assumed): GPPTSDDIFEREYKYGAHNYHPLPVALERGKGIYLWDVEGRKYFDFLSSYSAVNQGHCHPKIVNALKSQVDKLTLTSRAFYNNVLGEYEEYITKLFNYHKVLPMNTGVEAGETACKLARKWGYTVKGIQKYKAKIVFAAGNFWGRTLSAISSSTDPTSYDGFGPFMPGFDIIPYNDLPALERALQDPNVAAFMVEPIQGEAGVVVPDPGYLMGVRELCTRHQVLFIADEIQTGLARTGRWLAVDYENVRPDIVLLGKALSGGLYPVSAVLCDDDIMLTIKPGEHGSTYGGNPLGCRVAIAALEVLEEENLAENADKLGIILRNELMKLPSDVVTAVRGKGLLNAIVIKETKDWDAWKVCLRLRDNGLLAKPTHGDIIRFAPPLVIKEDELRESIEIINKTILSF

The mark [4] stands for this setting: read-out: IC50 (reversible inhibition).

Consider `N[C@H]1C[C@@H](C(=O)O)CC1=C(F)F` [CPP-115, (1S,3S)-3-amino+difluoromethylenyl-1-cyclopentanoic acid, reference compound], for which the “inactivation or inhibition of off-target enzyme” value in series [1] and in series [2] was “not to inactivate or inhibit” throughout. The Ki – broadly, the equilibrium dissociation constant of an inhibitor or competing ligand from its target – in series [3] is 116 µM. Further, in series [3], the kintact was 0.097 min⁻¹.
In the case of `N[C@H]1C=C(C(=O)O)CC1=C(F)F` [(S)-3-amino-4-(difluoromethylenyl)cyclopent-1-ene-1-carboxylic acid], the IC50 (usually the midpoint of a concentration-inhibition curve) in series [1] (setting [4]) is > 4000 µM. Further, the IC50 in series [2] (setting [4]) is > 4000 µM. Also, in series [3], the kintact was 0.025 min⁻¹ and the kintact/KI is 127 M⁻¹ s⁻¹. For the same compound, the “times more efficient an inactivator of OAT than CPP-115” value in series [3] (relative to CPP-115) is 9.0 times.
